Results: US20200405752A1, “ANTITUMOR AGENT, ANTITUMOR EFFECT ENHANCER, AND ANTITUMOR KIT” (FUJIFILM Corporation, priority 2018, published 2020)

Key:
[1] = system: human ovarian cancer cell line ES-2; experiment: Cell viability (CellTiter Glo) of ES-2 in combination with cisplatin or carboplatin; type: cell-based; conditions: for CI: ES-2 Cell; for viability at 0.001 µM / viability at 0.003 µM / viability at 0.01 µM / viability at 0.03 µM / viability at 0.1 µM / viability at 0.3 µM / viability at 1 µM / viability at 3 µM / viability at 10 µM: 72 h, 3 days; for viability at 0.001 µM: test substance 1 nM; for viability at 0.003 µM: test substance 3 nM; for viability at 0.01 µM: test substance 10 nM; for viability at 0.03 µM: test substance 30 nM; for viability at 0.1 µM: test substance 100 nM; for viability at 0.3 µM: test substance 300 nM; for viability at 1 µM: test substance 1000 nM; for viability at 3 µM: test substance 3000 nM; for viability at 10 µM: test substance 10000 nM
Text: (§1) On the combinational effect of the embodiment of the invention, the results of evaluation using a combination index (CI) which is a quantitative index of the combinational effect are shown. The CI can be calculated by the following equation according to Cancer Research, 2010, Vol. 70, pp. 440 to 446.
(§2) That is, in a case where the drugs to be used in combination are drug 1 and drug 2, the CI at a certain drug concentration is
(§3) CI={(cell viability in case of using drug 1 and drug 2 in combination)/100}/{[(cell viability in case of using drug 1)/100]×[(cell viability in case of using drug 2)/100]}
(§4) Evaluation of antitumor activity against human ovarian cancer cell lines ES-2 and SK-OV-3 in combination with cisplatin and carboplatin
(§5) Furthermore, the antitumor activity against human ovarian cancer-derived cell lines ES-2 and SK-OV-3 in combination with cisplatin and carboplatin was evaluated in the same manner as in Test Example 1.
(§6) Gemcitabine, cisplatin, carboplatin, and methanesulfonate of Compound A were used as test substances.
(§7) Gemcitabine hydrochloride (manufactured by Plantex Co., Ltd.) dissolved in DMSO was used as gemcitabine. Cisplatin (Cat. #039-20091, manufactured by Wako Pure Chemical Industries, Ltd.) and carboplatin (Cat. #C2043, manufactured by Tokyo Chemical Industry Co., Ltd.), each of which dissolved in McCoy's 5a medium (Cat. #16600-082, manufactured by Thermo Fisher Scientific Inc.) supplemented with 1% serum (Cat. #10437-028, manufactured by Thermo Fisher Scientific Inc.), were used as cisplatin and carboplatin, respectively.
(§8) Human ovarian cancer cell line ES-2 and SK-OV-3 cells were subcultured in 10% serum-supplemented medium. During this test, all cell cultures were carried out in a CO2 incubator (set to 37° C. and 5% CO2, saturated with water vapor). ES-2 cells were diluted with 10% serum-supplemented medium to a cell density of 10000 cells/well/100 μL and SK-OV-3 cells were diluted with 10% serum-supplemented medium to a cell density of 15000 cells/well/100 μL, and then seeded on a 96-well plate. On the next day, the culture supernatant of each well was discarded, followed by washing twice with 150 μL of 1% serum-supplemented medium, and 100 μL of 1% serum-supplemented medium was added thereto, followed by culturing for 3 days.
The methanesulfonate of Compound A and gemcitabine were dissolved in DMSO to prepare 100 mmol/L DMSO solutions thereof. The thus-prepared DMSO solutions were diluted sequentially with DMSO to prepare DMSO solutions having a final treatment concentration of 1000-fold dilution. Cisplatin and carboplatin were dissolved in 1% serum-supplemented medium to prepare a cisplatin solution 60 μmol/L and a carboplatin solution 600 μmol/L, respectively. The DMSO diluted solutions of Compound A and gemcitabine were diluted with the cisplatin solution (60 μmol/L) or the Carboplatin solution (600 μmol/L) to prepare treatment liquids having a final treatment concentration of 6-fold dilution. Compound A and gemcitabine were used with a maximum concentration of 10 μmol/L at a common ratio of 1/3 and 9 concentrations in combination with cisplatin or Carboplatin.
(§9) 20 μL of Compound A or gemcitabine diluted with the cisplatin solution (60 μmol/L) or the Carboplatin solution (600 μmol/L) was added to each well. In addition, a group in which only a solvent containing no drug was added to wells in which cells were seeded (positive control), and a group in which only a solvent containing no drug was added to wells containing only a medium (negative control) were provided. All groups were set to n=3 well.
The cells were cultured for 3 days after the addition of the drug, and the cell viability was evaluated using a CellTiter Glo (registered trademark) Reagent (Cat. #G7570, manufactured by Promega Corporation) with the intracellular ATP level as an index. […]

[2] = system: human ovarian cancer cell line SK-OV-3; experiment: Cell viability (CellTiter Glo) of SK-OV-3 in combination with cisplatin or carboplatin; type: cell-based; conditions: for viability at 0.001 µM / viability at 0.003 µM / viability at 0.01 µM / viability at 0.03 µM / viability at 0.1 µM / viability at 0.3 µM / viability at 1 µM / viability at 3 µM / viability at 10 µM: SK-OV-3, 72 h, 3 days; for viability at 0.001 µM: test substance 1 nM; for viability at 0.003 µM: test substance 3 nM; for viability at 0.01 µM: test substance 10 nM; for viability at 0.03 µM: test substance 30 nM; for viability at 0.1 µM: test substance 100 nM; for viability at 0.3 µM: test substance 300 nM; for viability at 1 µM: test substance 1000 nM; for viability at 3 µM: test substance 3000 nM; for viability at 10 µM: test substance 10000 nM; for CI: SK-OV-3 Cell
Text: as §1, §2, §3, §4, §5, §6, §7, §8
The methanesulfonate of Compound A and gemcitabine were dissolved in DMSO to prepare 100 mmol/L DMSO solutions thereof. The thus-prepared DMSO solutions were diluted sequentially with DMSO to prepare DMSO solutions having a final treatment concentration of 1000-fold dilution. […] […] Compound A and gemcitabine were used with a maximum concentration of 10 μmol/L at a common ratio of 1/3 and 9 concentrations in combination with cisplatin or Carboplatin.
as §9
The cells were cultured for 3 days after the addition of the drug, and the cell viability was evaluated using a CellTiter Glo (registered trademark) Reagent (Cat. #G7570, manufactured by Promega Corporation) with the intracellular ATP level as an index. The concentration that inhibits cell viability by 50% (IC50 value) was calculated using XLFit software Ver.3 (registered trademark, manufactured by CTC Laboratory Systems Corporation).
The cell viability of each well was determined with the luminescence signal level of the negative control being 0% cell viability and the luminescence signal level of the positive control being 100% cell viability. The average value and standard deviation of the cell viability of each treatment group were calculated to prepare Tables 3 to 6.

[3] = Homo sapiens, ES-2, with carboplatin 100 μmol/L
[4] = Homo sapiens, ES-2, with cisplatin 10 μmol/L
[5] = Homo sapiens, SK-OV-3, with carboplatin 30 μmol/L
[6] = Homo sapiens, SK-OV-3, with cisplatin 10 μmol/L

Nc1ccn([C@@H]2O[C@H](CO)[C@@H](O)C2(F)F)c(=O)n1 [Gemcitabine]
IC50 value ([1]; ES-2, used in combination with cisplatin (10 μmol/L, Table 3)): could not be calculated | CI ([1]; combination with Carboplatin): 0.9 | CI ([1]; combination with Cisplatin): 1.1 | viability at 0.001 µM [1, 3]: 76% | viability at 0.003 µM [1, 3]: 74% | viability at 0.01 µM [1, 3]: 71% | viability at 0.03 µM [1, 3]: 71% | viability at 0.1 µM [1, 3]: 72% | viability at 0.3 µM [1, 3]: 71% | viability at 1 µM [1, 3]: 69% | viability at 3 µM [1, 3]: 62% | viability at 10 µM [1, 3]: 48% | viability at 0.001 µM [1, 4]: 74% | viability at 0.003 µM [1, 4]: 78% | viability at 0.01 µM [1, 4]: 78% | viability at 0.03 µM [1, 4]: 79% | viability at 0.1 µM [1, 4]: 79% | viability at 0.3 µM [1, 4]: 79% | viability at 1 µM [1, 4]: 74% | viability at 3 µM [1, 4]: 65% | viability at 10 µM [1, 4]: 50% | IC50 ([1]; Homo sapiens, ES-2, used in combination with carboplatin (100 μmol/L, Table 6)): ≥ 10 µM | viability at 0.001 µM [2, 5]: 90% | viability at 0.003 µM [2, 5]: 90% | viability at 0.01 µM [2, 5]: 88% | viability at 0.03 µM [2, 5]: 86% | viability at 0.1 µM [2, 5]: 83% | viability at 0.3 µM [2, 5]: 82% | viability at 1 µM [2, 5]: 81% | viability at 3 µM [2, 5]: 80% | viability at 10 µM [2, 5]: 76% | viability at 0.001 µM [2, 6]: 82% | viability at 0.003 µM [2, 6]: 84% | viability at 0.01 µM [2, 6]: 84% | viability at 0.03 µM [2, 6]: 83% | viability at 0.1 µM [2, 6]: 83% | viability at 0.3 µM [2, 6]: 83% | viability at 1 µM [2, 6]: 79% | viability at 3 µM [2, 6]: 59% | viability at 10 µM [2, 6]: 30% | IC50 ([2]; Homo sapiens, SK-OV-3, SK-OV-3, used in combination with cisplatin (10 μmol/L, Table 4)): 3.8 µM | IC50 value ([2]; SK-OV-3, used in combination with carboplatin (30 μmol/L, Table 5)): could not be calculated | CI ([2]; combination with Carboplatin): 1.0 | CI ([2]; combination with Cisplatin): 1.1
